# Read-outs that look alike come from different tables or passages of the source.
# Legend:
# [1] = tested on: monocyte chemoattractant protein (MCP-1); details: 24 hours, RAW cells activated with 1 μg/mL LPS
# Protocol: The following study was conducted to determine the effect of the combination of sulforaphane and magnesium sulfate (MgSO4) on expression of monocyte chemoattractant protein (MCP-1), which is a mediator of inflammation. MCP-1 is chemokine which attracts monocytes, macrophages, and lymphocytes to sites of inflammation. A reduction in MCP-1 is beneficial for the health of endothelial cells which line the cardiovascular system.
# In the study, RAW cells were activated with 1 μg/mL lipopolysaccharide (LPS) for 30 minutes to stimulate the induction of MCP-1 gene expression. Following LPS treatment, the cells were treated with one of the following: (i) DMSO (vehicle control), (ii) 0.5 μM SFN, (iii) 2.5 mM MgSO4, or (iv) the combination of 0.5 μM SFN and 2.5 mM MgSO4. After treatment for 24 hours, the MCP-1 levels were assessed via quantitative RT-PCR.
# myrosinase [2] = experiment: Conversion of glucoraphanin to sulforaphane in Simulated Intestinal Fluid; assay type: biochemical, broccoli; details: 0.25 to 1.00 mmol/Liter ascorbic acid, 38° C., especially at the earlier stages, FIG. 4
# Protocol: Simulated Intestinal Fluid (SIF) powder, a commercially supplied concentrate closely approximating the human intestinal content in terms of composition, pH and ionic strength, was used. The experiment utilized a USP Dissolution Apparatus 2 (paddles), where into six dissolution vessels 500 mL of Simulated Intestinal Fluid was dispensed, along with 150 mg of freeze-dried broccoli sprout powder as a source of myrosinase. […] Aliquots were withdrawn every 15 minutes, and assayed for sulforaphane.
# [3] = tested on: broccoli sprout-derived myrosinase; experiment: Hydrolysis of glucoraphanin (broccoli seed extract) by myrosinase as a function of ascorbic acid concentration; assay type: biochemical; details: 38° C.; for Slope (rate of glucoraphanin consumption): linear regression 0-60 min
# Protocol: About 250 mg of broccoli seed extract containing about 12% (w/w) glucoraphanin were subjected to hydrolysis by a fixed concentration of broccoli sprout-derived myrosinase in the presence of variable concentration of ascorbic acid, ranging from 0 to 600 μmoles/Liter. The reaction mixtures were thermostated at 38° C.; aliquots were withdrawn every 15 minutes for 60 minutes, and concentration of glucoraphanin determined chromatographically. The rate of glucoraphanin consumption was interpreted as the rate its conversion to sulforaphane. Graphical representation of glucoraphanin content reduction as a function of increasing ascorbic acid concentration results in a series of linear plots; the slopes of the linear regression lines reflect the rate of glucoraphanin consumption, in μmoles/minute. It is apparent that in the presence of 600 μmoles/Liter concentration of ascorbic acid, the reaction rate increased 13-fold relative to that which proceeded in the absence of modulatory effects of ascorbic acid.
# myrosinase [4] = experiment: Equimolar conversion of glucoraphanin to sulforaphane by myrosinase, with and without ascorbic acid; assay type: biochemical; details: Part 2; broccoli seed extract fixed at 250 mg
# Protocol: A two-part experiment was conducted to further elucidate the role of ascorbic acid in modulating myrosinase activity. […] A control sample contained no ascorbic acid, and the enzymatic conversion proceeded unassisted by a co-factor. PART 1. […] PART 2. While keeping the amount of broccoli seed extract fixed at 250 mg, the concentration of ascorbic acid was varied from 0.4 mmol/Liter to 3.8 mmol/Liter.
# [5] = tested on: NAD(P)H:quinine oxidoreductase (NQO1); details: oral administration; mammary epithelium; Sprague-Dawley rats; cited from earlier work
# mammary tumors = details: Sprague-Dawley rats; cited from earlier work
# heme oxygenase-1 (HO-1) = details: oral administration; mammary epithelium; Sprague-Dawley rats; cited from earlier work
structure (smiles),measurement,setting,value
O=S(=O)([O-])[O-].[Mg+2] [magnesium sulfate],decrease in MCP-1 levels,[1]; 2.5 mM MgSO4,approximately 16%
"O=C1O[C@H]([C@@H](O)CO)C(O)=C1O [Ascorbic Acid, ascorbic acid]",relation of sulforaphane yield to ascorbic acid concentration,myrosinase [2],direct correlation between larger yield of sulforaphane and higher concentrations of ascorbic acid
same,increase of reaction rate (glucoraphanin consumption),"[3]; 600 μmoles/Liter ascorbic acid, relative to absence of ascorbic acid",13 fold
same,Slope (rate of glucoraphanin consumption),[3]; ascorbic acid 50 μM,-0.286 µmol/min
same,glucoraphanin (GR) content,"[3]; ascorbic acid 50 μM, time 0 min",93.36 µmol
same,glucoraphanin (GR) content,"[3]; ascorbic acid 50 μM, time 15 min",89.20 µmol
same,glucoraphanin (GR) content,"[3]; ascorbic acid 50 μM, time 30 min",84.24 µmol
same,glucoraphanin (GR) content,"[3]; ascorbic acid 50 μM, time 45 min",80.30 µmol
same,glucoraphanin (GR) content,"[3]; ascorbic acid 50 μM, time 60 min",76.36 µmol
same,Slope (rate of glucoraphanin consumption),[3]; ascorbic acid 125 μM,-0.5622 µmol/min
same,glucoraphanin (GR) content,"[3]; ascorbic acid 125 μM, time 0 min",93.36 µmol
same,glucoraphanin (GR) content,"[3]; ascorbic acid 125 μM, time 15 min",84.52 µmol
same,glucoraphanin (GR) content,"[3]; ascorbic acid 125 μM, time 30 min",75.92 µmol
same,glucoraphanin (GR) content,"[3]; ascorbic acid 125 μM, time 45 min",68.09 µmol
same,glucoraphanin (GR) content,"[3]; ascorbic acid 125 μM, time 60 min",59.41 µmol
same,Slope (rate of glucoraphanin consumption),[3]; ascorbic acid 250 μM Filtered,-0.4714 µmol/min
same,glucoraphanin (GR) content,"[3]; ascorbic acid 250 μM Filtered, time 0 min",93.36 µmol
same,glucoraphanin (GR) content,"[3]; ascorbic acid 250 μM Filtered, time 15 min",86.31 µmol
same,glucoraphanin (GR) content,"[3]; ascorbic acid 250 μM Filtered, time 30 min",79.44 µmol
same,glucoraphanin (GR) content,"[3]; ascorbic acid 250 μM Filtered, time 45 min",71.94 µmol
same,glucoraphanin (GR) content,"[3]; ascorbic acid 250 μM Filtered, time 60 min",65.18 µmol
same,Slope (rate of glucoraphanin consumption),[3]; ascorbic acid 250 μM,-0.7901 µmol/min
same,glucoraphanin (GR) content,"[3]; ascorbic acid 250 μM, time 0 min",93.36 µmol
same,glucoraphanin (GR) content,"[3]; ascorbic acid 250 μM, time 15 min",80.95 µmol
same,glucoraphanin (GR) content,"[3]; ascorbic acid 250 μM, time 30 min",69.06 µmol
same,glucoraphanin (GR) content,"[3]; ascorbic acid 250 μM, time 45 min",57.63 µmol
same,glucoraphanin (GR) content,"[3]; ascorbic acid 250 μM, time 60 min",45.76 µmol
same,Slope (rate of glucoraphanin consumption),[3]; ascorbic acid 400 μM,-1.007 µmol/min
same,glucoraphanin (GR) content,"[3]; ascorbic acid 400 μM, time 0 min",93.36 µmol
same,glucoraphanin (GR) content,"[3]; ascorbic acid 400 μM, time 15 min",78.32 µmol
same,glucoraphanin (GR) content,"[3]; ascorbic acid 400 μM, time 30 min",62.78 µmol
same,glucoraphanin (GR) content,"[3]; ascorbic acid 400 μM, time 45 min",47.67 µmol
same,glucoraphanin (GR) content,"[3]; ascorbic acid 400 μM, time 60 min",33.15 µmol
same,Slope (rate of glucoraphanin consumption),[3]; ascorbic acid 600 μM,-1.2 µmol/min
same,glucoraphanin (GR) content,"[3]; ascorbic acid 600 μM, time 0 min",93.36 µmol
same,glucoraphanin (GR) content,"[3]; ascorbic acid 600 μM, time 15 min",75.02 µmol
same,glucoraphanin (GR) content,"[3]; ascorbic acid 600 μM, time 30 min",55.66 µmol
same,glucoraphanin (GR) content,"[3]; ascorbic acid 600 μM, time 45 min",37.50 µmol
same,glucoraphanin (GR) content,"[3]; ascorbic acid 600 μM, time 60 min",22.09 µmol
same,"ascorbic acid concentration up to which myrosinase-promoted conversion increases apparently linearly, then levels off",myrosinase [4],about 2 mmol/L
"C[S+]([O-])CCCCN=C=S (centres unmarked) [sulforaphane, 1-isothiocyanato-4-methylsulfinylbutane]",increase in NQO1 enzymatic activity,[5],3 fold
same,blocking the formation of mammary tumors,mammary tumors,effective in blocking the formation of mammary tumors
same,elevated immunostaining of HO-1,heme oxygenase-1 (HO-1),4 fold
same,decrease in MCP-1 levels,[1]; 0.5 μM SFN,approximately 29%

# Source: US20150118304A1, “COMPOSITIONS COMPRISING SULFORAPHANE OR A SULFORAPHANE PRECURSOR AND MAGNESIUM” (Nutramax Laboratories, Inc., priority 2012, published 2015)
